In PMC8662559, “The Effects of a Novel Non-catechol Dopamine Partial Agonist on Working Memory in the Aged Rhesus Monkey” (Frontiers in Aging Neuroscience, 2021):
pEC50, pKi: −log10 of the molar value.

Legend:
human D1 receptor [1] = biological target: T1, human D1 receptor (Homo sapiens, UniProt P21728); assay: cAMP functional assay (method of Gray et al., […]); format: cell-based; conditions: partial agonist
T1 construct: gene DRD1; human D1

human D1 receptor [2] = biological target: T1, human D1 receptor; assay: binding assay (method of Gray et al., […]); format: cell-based
[3] = biological target: T2, non-human primate D1 receptor (Macaca fascicularis, UniProt G7P6Y1); assay: radioligand competition binding; format: biochemical; conditions: 1.0 nM [3H]-SCH23390, striatal membranes, 4 mM MgSO4, 0.5 mM EDTA, pH 7.4, 37 °C; Cheng-Prusoff
T2 construct: native receptor in striatal membrane homogenate
T2 sequence (G7P6Y1 1-446): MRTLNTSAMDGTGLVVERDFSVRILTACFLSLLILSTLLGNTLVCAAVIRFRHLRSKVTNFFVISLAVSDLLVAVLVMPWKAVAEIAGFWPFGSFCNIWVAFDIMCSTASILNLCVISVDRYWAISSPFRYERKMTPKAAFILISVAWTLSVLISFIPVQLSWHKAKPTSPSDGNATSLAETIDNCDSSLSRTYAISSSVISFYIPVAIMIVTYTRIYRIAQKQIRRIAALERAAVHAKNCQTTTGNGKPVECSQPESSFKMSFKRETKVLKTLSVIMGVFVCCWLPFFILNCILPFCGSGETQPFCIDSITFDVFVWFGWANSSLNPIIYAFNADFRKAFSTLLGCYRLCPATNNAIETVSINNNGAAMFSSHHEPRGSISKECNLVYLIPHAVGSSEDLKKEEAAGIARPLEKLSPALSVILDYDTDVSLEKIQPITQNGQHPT

T1 sequence (P21728 whole entry): as the sequence (G7P6Y1 1-446) above, with I311N counted along it

pEC50 (human D1 receptor [1]): 7.44 | pKi (human D1 receptor [2]): 7.77 | pKi [3]: 7.85
Substance: PF-6294
